Patent US20130345418A1, “PROCESS FOR PURIFICATION OF APREPITANT” (HETERO DRUGS LIMITED, priority 2006, published 2013)
Read-outs that look alike come from different tables or passages of the source.

What was measured:
[1] = mean particle size of aprepitant; assay type: physicochemical; conditions: crystallized from ethyl acetate (Example 1)
[2] = aprepitant produced by the processes described in the prior art; cited from earlier work
[3] = dissolution rate of amorphous versus crystalline aprepitant; assay type: physicochemical; conditions: compared with the known crystalline aprepitant

Row | mean particle size [1] | Structure (SMILES) | mean particle size [2] | dissolution rate [3]
1 | 4.95 microns | C[C@@H](O[C@H]1OCCN(Cc2n[nH]c(=O)[nH]2)[C@H]1c1ccc(F)cc1)c1cc(C(F)(F)F)cc(C(F)(F)F)c1 [aprepitant, 5-[[(2R,3S)-2-[(1R)-1-[3,5-bis(trifluoromethyl)phenyl]ethoxy]-3-(4-fluorophenyl)-4-morpholinyl]methyl]-1,2-dihydro-3H-1,2,4-triazol-3-one] | about 12 microns | 
2 |  | C[C@@H](O[C@H]1OCCN(Cc2n[nH]c(=O)[nH]2)[C@H]1c1ccc(F)cc1)c1cc(C(F)(F)F)cc(C(F)(F)F)c1 [amorphous aprepitant, 5-[[(2R,3S)-2-[(1R)-1-[3,5-bis(trifluoromethyl)phenyl]ethoxy]-3-(4-fluorophenyl)-4-morpholinyl]methyl]-1,2-dihydro-3H-1,2,4-triazol-3-one] |  | better dissolution rate than the known crystalline aprepitant
